Publication PMC7901699, “Challenging inflammatory process at molecular, cellular and in vivo levels via some new pyrazolyl thiazolones” (Journal of Enzyme Inhibition and Medicinal Chemistry, 2021)
“Also recorded” adds a separate entry of the source.

Legend:
ovine COX-1 = target: T1, ovine COX-1 (Ovis aries, UniProt P05979); experiment: In vitro COX-1 inhibition assay (colorimetric COX inhibitor screening kit, Cayman); format: biochemical; settings: mean of three determinations
T1 construct: purchased Cayman Chemicals Inc. 560131
T1 sequence (P05979 25-600): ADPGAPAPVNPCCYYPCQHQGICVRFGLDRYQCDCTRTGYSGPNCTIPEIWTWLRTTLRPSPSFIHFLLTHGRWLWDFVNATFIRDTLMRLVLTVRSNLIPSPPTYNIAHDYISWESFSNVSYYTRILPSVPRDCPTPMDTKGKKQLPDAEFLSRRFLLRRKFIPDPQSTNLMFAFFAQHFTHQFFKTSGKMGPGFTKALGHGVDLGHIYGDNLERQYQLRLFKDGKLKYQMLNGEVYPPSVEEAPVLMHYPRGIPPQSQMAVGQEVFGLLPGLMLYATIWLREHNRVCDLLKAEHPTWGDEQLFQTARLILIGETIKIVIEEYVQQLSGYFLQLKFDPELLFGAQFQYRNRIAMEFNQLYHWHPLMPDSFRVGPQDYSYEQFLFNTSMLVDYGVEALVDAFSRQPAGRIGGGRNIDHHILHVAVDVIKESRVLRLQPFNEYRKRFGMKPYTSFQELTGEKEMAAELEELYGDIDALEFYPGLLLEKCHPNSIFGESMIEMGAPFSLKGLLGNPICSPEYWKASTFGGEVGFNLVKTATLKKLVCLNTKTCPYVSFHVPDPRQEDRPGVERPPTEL
Protocol: (§1) Both assays were carried out in compliance with the manufacturer’s instructions and in accordance to prior studies[29]^,[33].
(§2) IC50 values (μM) and selectivity indices (SI) were calculated.

15-LOX = target: T2, 15-LOX (Glycine max, UniProt P08170); experiment: In vitro 15-LOX inhibition assay (lipoxygenase inhibitor screening kit, Cayman); format: biochemical; settings: for IC50: mean of three determinations
T2 construct: purchased Cayman chemicals 760700
T2 sequence (P08170 1-839): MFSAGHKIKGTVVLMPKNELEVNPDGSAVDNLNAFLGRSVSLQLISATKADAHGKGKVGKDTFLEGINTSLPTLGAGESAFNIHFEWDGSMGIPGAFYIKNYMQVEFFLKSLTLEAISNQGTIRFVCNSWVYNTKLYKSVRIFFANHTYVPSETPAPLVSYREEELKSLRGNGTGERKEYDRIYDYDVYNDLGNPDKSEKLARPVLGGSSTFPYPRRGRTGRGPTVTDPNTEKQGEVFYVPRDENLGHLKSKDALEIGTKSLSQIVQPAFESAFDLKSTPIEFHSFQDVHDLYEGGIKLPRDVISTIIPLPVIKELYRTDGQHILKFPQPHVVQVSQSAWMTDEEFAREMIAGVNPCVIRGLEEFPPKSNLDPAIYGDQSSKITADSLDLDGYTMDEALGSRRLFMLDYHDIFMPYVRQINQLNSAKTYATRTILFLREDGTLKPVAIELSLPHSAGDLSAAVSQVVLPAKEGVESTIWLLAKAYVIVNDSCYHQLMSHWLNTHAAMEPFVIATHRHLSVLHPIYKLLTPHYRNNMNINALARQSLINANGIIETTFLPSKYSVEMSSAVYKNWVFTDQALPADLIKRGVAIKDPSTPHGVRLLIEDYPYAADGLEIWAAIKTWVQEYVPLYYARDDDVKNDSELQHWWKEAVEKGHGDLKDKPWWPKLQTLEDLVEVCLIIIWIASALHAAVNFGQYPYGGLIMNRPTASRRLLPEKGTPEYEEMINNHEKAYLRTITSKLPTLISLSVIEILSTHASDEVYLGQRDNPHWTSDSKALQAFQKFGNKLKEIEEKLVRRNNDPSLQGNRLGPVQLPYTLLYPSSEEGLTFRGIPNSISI
Protocol: as §1, §2

human recombinant COX-2 = target: T3, human recombinant COX-2 (Homo sapiens, UniProt P35354); experiment: In vitro COX-2 inhibition assay (colorimetric COX inhibitor screening kit, Cayman); format: biochemical; settings: for SI (COX-1/ COX-2): IC50 (COX-1)/IC50 (COX-2); for IC50: mean of three determinations
T3 construct: purchased Cayman Chemicals Inc. 560131
T3 sequence (P35354 18-604): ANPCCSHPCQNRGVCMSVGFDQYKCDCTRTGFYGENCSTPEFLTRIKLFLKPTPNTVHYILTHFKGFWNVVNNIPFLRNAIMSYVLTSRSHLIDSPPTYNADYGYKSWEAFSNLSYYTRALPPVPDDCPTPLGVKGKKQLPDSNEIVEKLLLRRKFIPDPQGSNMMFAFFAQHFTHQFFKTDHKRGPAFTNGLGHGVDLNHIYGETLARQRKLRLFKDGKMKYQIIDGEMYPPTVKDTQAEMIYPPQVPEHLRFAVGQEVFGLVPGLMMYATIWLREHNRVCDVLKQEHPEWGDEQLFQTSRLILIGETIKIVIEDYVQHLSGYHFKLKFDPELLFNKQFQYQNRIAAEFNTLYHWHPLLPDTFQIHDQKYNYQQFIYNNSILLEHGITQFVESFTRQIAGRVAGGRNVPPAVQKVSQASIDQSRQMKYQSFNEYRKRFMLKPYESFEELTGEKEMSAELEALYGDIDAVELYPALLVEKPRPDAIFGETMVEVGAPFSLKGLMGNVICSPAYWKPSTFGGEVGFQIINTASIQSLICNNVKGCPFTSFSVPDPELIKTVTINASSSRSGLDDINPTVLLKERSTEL
Protocol: as §1, §2

rat stomach = experiment: Gastric ulcerogenic activity and histopathological examination; settings: stomach removed on 8th day of administration, 5 mg/kg oral
[1] = tested on: formalin-induced rat paw oedema; experiment: Formalin-induced paw oedema test (acute inflammation model); format: in vivo, Wistar rats; settings: oral 5 mg/kg once daily for seven days; oedema 4 h after formalin; vs diclofenac sodium and celecoxib 5 mg/kg
Protocol: A freshly prepared 5% formalin solution (prepared from 37% formaldehyde and saline (Merck, Germany)) was used as a phlogistic agent. Test and reference compounds (5 mg/kg body weight) were dissolved in DMSO and given orally with gastric gavage once per day for seven consecutive days, whereas DMSO was administered to the control group. On the 8th day, the initial paw volume was determined by a Vernier calliper. Then, a subcutaneous injection of 40 μl formalin was introduced into the right hind paw of all groups under light ether anaesthesia. The paw volume was measured 4 h after the formalin injection and the oedema volume was calculated by the difference in paw volume before and 4 h after the formalin injection. The percentage inhibition of oedema (or % protection against inflammation) was calculated for each compound as previously reported[34]^,[35].

[2] = tested on: cotton pellet-induced granuloma; experiment: Cotton pellet-induced granuloma assay (chronic inflammation model); settings: oral 5 mg/kg daily, pellets excised on 8th day, vs diclofenac sodium and celecoxib

Compound | IC50 (ovine COX-1) | IC50 (15-LOX) | SI (COX-1/ COX-2) (human recombinant COX-2) | IC50 (human recombinant COX-2) | 15-LOX inhibition, times the activity of quercetin (15-LOX; relative to quercetin) | Gross observation of isolated rat stomachs (rat stomach; 5 mg/kg) | Inhibition of formalin-induced rat paw oedema (in words) [1] | Inhibition of cotton pellet granuloma weight (in words) ([2]; 5 mg/kg) | 15-LOX inhibitory activity as % of the activity of quercetin (15-LOX; relative to quercetin) | Inhibition of cotton pellet granuloma weight (in words) [2] | Gross observation of isolated rat stomachs (rat stomach) | Histopathological examination of stomach gastric layers (rat stomach; H&E, 5 mg/kg)
O=C1N=C(N2CCCCC2)S/C1=C\c1cn(-c2ccccc2)nc1-c1ccccc1 [Compound 3, (Z)-5-((1,3-diphenyl-1H-pyrazol-4-yl)methylene)-2-(piperidin-1-yl)thiazol-4(5H)-one] | 7.86 µM | 2.54 µM | 41 | 0.19 µM |  |  |  |  |  |  |  | 
Cc1nn(-c2ccccc2)c(Cl)c1/C=C1\SC(N2CCOCC2)=NC1=O [Compound 2, (Z)-5-((5-chloro-3-methyl-1-phenyl-1H-pyrazol-4-yl)methylene)-2-morpholinothiazol-4(5H)-one] | 8.14 µM | 2.42 µM | 90 | 0.09 µM |  | normal texture | as effective as either diclofenac or celecoxib | superior anti-inflammatory activity, when compared to diclofenac and celecoxib; also recorded: increased inhibition of granuloma weight in comparison to both celecoxib and diclofenac |  |  |  | 
Cc1nn(-c2ccccc2)c(Cl)c1/C=C1\SC(N2CCCCC2)=NC1=O [Compound 1, (Z)-5-((5-chloro-3-methyl-1-phenyl-1H-pyrazol-4-yl)methylene)-2-(piperidin-1-yl)thiazol-4(5H)-one] | 6.56 µM | 1.96 µM | 59 | 0.11 µM | 1.7 times |  |  |  |  |  |  | 
O=C1N=C(N2CCCCC2)S/C1=C\c1cn(-c2ccccc2)nc1-c1ccc(Br)cc1 [Compound 9, (Z)-5-((3-(4-bromophenyl)-1-phenyl-1H-pyrazol-4-yl)methylene)-2-(piperidin-1-yl)thiazol-4(5H)-one] | 14 µM | 5.64 µM | 107 | 0.13 µM |  |  | as effective as either diclofenac or celecoxib |  | 59% | only superior to celecoxib |  | 
O=C1N=C(N2CCOCC2)S/C1=C\c1cn(-c2ccccc2)nc1-c1ccc(Br)cc1 [Compound 10, (Z)-5-((3-(4-bromophenyl)-1-phenyl-1H-pyrazol-4-yl)methylene)-2-morpholinothiazol-4(5H)-one] | 11.3 µM | 4.52 µM | 103 | 0.11 µM |  |  | as effective as either diclofenac or celecoxib |  | 74% | only superior to celecoxib | variable levels of hyperaemia without gross ulceration | both edoema and inflammatory changes in stomach mucosal surface

The next lines start with results.

IC50 (ovine COX-1) | IC50 (15-LOX) | SI (COX-1/ COX-2) (human recombinant COX-2) | IC50 (human recombinant COX-2) | 15-LOX inhibition, times the activity of quercetin (15-LOX; relative to quercetin) | Compound | Gross observation of isolated rat stomachs (rat stomach; 5 mg/kg) | Inhibition of formalin-induced rat paw oedema (in words) [1] | Inhibition of cotton pellet granuloma weight (in words) ([2]; 5 mg/kg) | 15-LOX inhibitory activity as % of the activity of quercetin (15-LOX; relative to quercetin) | Inhibition of cotton pellet granuloma weight (in words) [2] | Gross observation of isolated rat stomachs (rat stomach) | Histopathological examination of stomach gastric layers (rat stomach; H&E, 5 mg/kg)
12.5 µM | 2.85 µM | 69 | 0.18 µM |  | Cc1ccc(-c2nn(-c3ccccc3)cc2/C=C2\SC(N3CCOCC3)=NC2=O)cc1 [Compound 6, (Z)-2-morpholino-5-((1-phenyl-3-(p-tolyl)-1H-pyrazol-4-yl)methylene)thiazol-4(5H)-one] |  |  |  |  |  |  | 
 | 5.64 µM |  |  |  | Cc1ccc(Cl)c(Nc2ccccc2C(=O)O)c1Cl [Meclofenamate Na, reference compound] |  |  |  |  |  |  | 
9.23 µM | 4.23 µM | 27 | 0.34 µM |  | Cc1ccc(-c2nn(-c3ccccc3)cc2/C=C2\SC(N3CCCCC3)=NC2=O)cc1 [Compound 5, (Z)-5-((1-phenyl-3-(p-tolyl)-1H-pyrazol-4-yl)methylene)-2-(piperidin-1-yl)thiazol-4(5H)-one] |  |  |  |  |  |  | 
